Test results from patent US20140350081A1, “INSECT G-COUPLED RECEPTORS USEFUL AS TARGETS FOR INSECTICIDES AND COMPOUNDS AND REAGENTS IDENTIFIED USING THE SAME” (priority 2011, published 2014).

Tests used:
[1] = system: Ae. aegypti larvae; test: whole plant or invertebrate; format: in vivo; details: Aedes aegypti, 24 h, read-out: average larval mortality
Description: Single dose-point and dose response in vivo mosquito bioassays were used to assess the toxicity of selected AaDop2 receptor antagonists identified in the chemical screen. Larvae of Ae. aegypti (Liverpool strain) were reared under standard laboratory conditions on a 12 hr day/night cycle at 75% RH and 28° C., and bioassays were conducted at room temperature (22-24° C.). Larvae were transferred from standard rearing trays into six-well tissue culture plates (Corning, Inc. Corning, N.Y.) using a small plastic pipette. Ten L4-stage larvae were included per well, each containing five ml of de-ionized water and an assigned drug concentration. Controls were conducted similarly but lacked a drug treatment. Bioassays employed a double-blind experimental design, and larval mortality was scored 24 hr following administration of drugs. Single dose-point assays were conducted using 400 μM drug and included three biological replicates each consisting of 100 larvae.

[2] = target: T1, Isdop2 (Ixodes scapularis, UniProt A0ACM8DGL0); test: cell-based; details: read-out: % Inhibition (of response to dopamine), Isdop2 screen
[3] = target: AaDOP1 (Aedes aegypti, UniProt H6D5H1); test: CRELuc reporter dose-response in HEK293 cells stably expressing AaDOP1; format: cell-based; details: HEK293 cells stably expressing CRELuc reporter and AaDOP1; ≧10 μM = lacks intrinsic activity
[4] = target: T2, AaDOP2 (Aedes aegypti, UniProt H6D5H2); test: CRELuc reporter dose-response in HEK293 cells stably expressing AaDOP2; format: cell-based
[5] = target: T3, Isdop1 (Ixodes scapularis, UniProt A0ACM8FJJ0); test: cAMP accumulation in HEK 293 cells transiently expressing Isdop1; format: cell-based
[6] = target: T1, Isdop2; test: cAMP accumulation in HEK 293 cells transiently expressing Isdop2; format: cell-based
[7] = target: T3, Isdop1; test: cAMP accumulation confirmation assay, cells stably expressing Isdop1; format: cell-based
[8] = target: T1, Isdop2; test: cAMP accumulation confirmation assay, cells stably expressing Isdop2; format: cell-based
[9] = target: T3, Isdop1; test: CRE-Luc reporter assay, HEK cells stably expressing Isdop1; format: cell-based
[10] = target: T1, Isdop2; test: CRE-Luc reporter assay, HEK cells stably expressing Isdop2; format: cell-based
[11] = target: T2, AaDOP2; test: AaDOP2 agonist screen against the LOPAC1280 library; format: cell-based; details: 10 μM compound; percent of response to 1 μM dihydrexidine
[12] = 10 μM biogenic amine, 300 nM propranolol, cAMP accumulation, mean±standard error
[13] = 10 μM antagonist with 1 μM dopamine

T1 sequence (A0ACM8DGL0 entry or part of it): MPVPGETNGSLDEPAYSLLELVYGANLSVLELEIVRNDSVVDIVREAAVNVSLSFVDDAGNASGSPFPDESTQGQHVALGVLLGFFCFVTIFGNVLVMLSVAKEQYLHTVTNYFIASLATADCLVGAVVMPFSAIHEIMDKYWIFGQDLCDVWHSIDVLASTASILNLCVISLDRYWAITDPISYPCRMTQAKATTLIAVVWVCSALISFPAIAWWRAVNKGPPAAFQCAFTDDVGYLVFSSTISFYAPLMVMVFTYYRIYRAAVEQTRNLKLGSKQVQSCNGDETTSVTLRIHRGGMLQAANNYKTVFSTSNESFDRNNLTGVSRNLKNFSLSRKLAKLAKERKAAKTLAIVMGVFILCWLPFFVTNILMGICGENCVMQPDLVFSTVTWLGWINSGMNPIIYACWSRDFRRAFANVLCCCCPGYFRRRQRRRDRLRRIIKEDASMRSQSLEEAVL
T2 sequence (H6D5H2 entry or part of it): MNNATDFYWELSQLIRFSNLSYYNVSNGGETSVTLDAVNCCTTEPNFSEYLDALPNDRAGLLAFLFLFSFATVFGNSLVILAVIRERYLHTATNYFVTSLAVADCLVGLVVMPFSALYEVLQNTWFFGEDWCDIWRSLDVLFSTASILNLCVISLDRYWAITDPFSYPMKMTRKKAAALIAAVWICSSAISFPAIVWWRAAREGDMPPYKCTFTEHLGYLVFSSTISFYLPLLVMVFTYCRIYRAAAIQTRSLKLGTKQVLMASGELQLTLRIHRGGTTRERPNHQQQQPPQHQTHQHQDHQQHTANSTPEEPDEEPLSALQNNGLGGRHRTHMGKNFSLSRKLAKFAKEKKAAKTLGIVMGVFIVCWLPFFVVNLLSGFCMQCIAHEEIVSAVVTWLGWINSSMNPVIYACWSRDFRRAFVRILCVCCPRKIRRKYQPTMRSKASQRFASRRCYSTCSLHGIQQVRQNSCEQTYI
Chain of AaDOP1 (H6D5H1 entry or part of it): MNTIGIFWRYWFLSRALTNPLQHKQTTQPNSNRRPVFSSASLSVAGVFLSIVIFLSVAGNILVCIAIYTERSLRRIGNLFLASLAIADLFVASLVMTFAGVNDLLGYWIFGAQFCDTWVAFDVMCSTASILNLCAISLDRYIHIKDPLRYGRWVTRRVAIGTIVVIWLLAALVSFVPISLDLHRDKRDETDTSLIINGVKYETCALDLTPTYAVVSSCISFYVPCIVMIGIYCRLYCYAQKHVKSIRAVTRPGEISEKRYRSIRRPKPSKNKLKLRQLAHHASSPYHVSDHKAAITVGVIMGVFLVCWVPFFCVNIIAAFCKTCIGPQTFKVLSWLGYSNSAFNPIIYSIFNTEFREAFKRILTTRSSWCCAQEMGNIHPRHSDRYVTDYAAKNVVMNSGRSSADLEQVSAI

## CN(C)CCC=C1c2ccccc2COc2ccccc21 (mixture of isomers) [Doxepin, ((Z)-3-(dibenzo[b,e]oxepin-11(6H)-ylidene)-N,N-dimethylpropan-1-amine)]
[1]
  mortality at 400 µM: 57%
[2]
  inhibition at 10 µM: 87%

## NCC(O)c1ccc(O)cc1 (racemic) [Octopamine]
[3]
  EC50: ≥ 10 µM
[4]
  EC50: ≥ 10 µM
[5]; [12]
  Stimulatory response (fold-over-basal) Isdop1: 1.01 ± 0.07 fold-over-basal
[6]; [12]
  Stimulatory response (fold-over-basal) Isdop2: 1.20 ± 0.24 fold-over-basal

## CC(C)(C)[C@]1(O)CCN2CC3c4ccccc4CCc4cccc(c43)[C@@H]2C1 (single isomer, unassigned; (+)) [(+)-Butaclamol, 3-(1,1-dimethylethyl)-2,3,4,4a,8,9,13b,14-octahydro-1H-benzo[6,7]cyclohepta[1,2,3-de]pyrido[2,1-a]isoquinolin-3-ol]
[5]; [13]
  effect on dopamine-stimulated cAMP, Isdop1: did not cause a similar response
[6]; [13]
  effect on dopamine-stimulated cAMP, Isdop2: antagonistic effects
[7]
  IC50: 3.5 µM
[8]
  IC50: 0.32 µM

## CNC[C@H](O)c1ccc(O)c(O)c1 [Epinephrine]
[4]; HEK 293-CRELuc cells, FIG. 21A
  behaviour at the AaDOP2 receptor in follow up CRCs: partial agonists
[9]
  EC50: 1.9 ± 0.3 µM
[10]
  EC50: 3.5 ± 1 µM
[11]
  % of DHX: 90%
